Laboratory results taken from patent publication US9834521B2, “Choline kinase inhibitors” (ARIAD Pharmaceuticals, Inc., priority 2013, dated 2017).

target: T1, truncated form of human Choline kinase α1 that includes residues 75-457 (Homo sapiens, UniProt P35790); assay: Kinase Assay, coupled (ATP regeneration) LDH/PK assay, NADH absorbance; type: biochemical; conditions: not given
T1 construct: made in house
Procedure: Absorbance of NADH (340 nm) was measured over 30 min using a SpectraMax M5 (Molecular Devices). Initial reaction velocity (ΔA340/Δt) was calculated and plotted as a function of inhibitor concentration in a 2-fold dilution series. IC50 values were obtained by fitting the relative velocities to a dose-response model.

T1 sequence (P35790 75-457): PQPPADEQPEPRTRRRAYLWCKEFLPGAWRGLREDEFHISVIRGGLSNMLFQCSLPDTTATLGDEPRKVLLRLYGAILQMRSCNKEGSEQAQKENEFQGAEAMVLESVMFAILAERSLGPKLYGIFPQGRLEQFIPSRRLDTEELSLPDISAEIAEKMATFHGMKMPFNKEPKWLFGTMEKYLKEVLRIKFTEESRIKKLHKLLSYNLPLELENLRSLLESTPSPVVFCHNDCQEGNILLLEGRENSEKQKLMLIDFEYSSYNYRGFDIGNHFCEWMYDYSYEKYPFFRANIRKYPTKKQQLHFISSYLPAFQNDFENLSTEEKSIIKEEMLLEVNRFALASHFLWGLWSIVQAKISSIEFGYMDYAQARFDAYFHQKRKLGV

Compound	IC50
CN1CCCN(Cc2ccc(-c3ccc(C(=O)N4CCCC4)cc3)c(C#N)c2)CC1 [Example 26, 4-((4-methyl-1,4-diazepan-1-yl)methyl)-4′-(pyrrolidine-1-carbonyl)-[1,1′-biphenyl]-2-carbonitrile]	< 2 µM
CN1CCCN(Cc2ccc(-c3ccc(C(=O)N4CCC(=O)CC4)cc3)c(C#N)c2)CC1 [Example 31, 4-((4-methyl-1,4-diazepan-1-yl)methyl)-4′-(4-oxopiperidine-1-carbonyl)-[1,1′-biphenyl]-2-carbonitrile]	< 2 µM
CN1CCCN(Cc2ccc(-c3ccc(C(=O)N4CCCCC4)cc3)c(C#N)c2)CC1 [Example 34, 4-((4-methyl-1,4-diazepan-1-yl)methyl)-4′-(piperidine-1-carbonyl)-[1,1′-biphenyl]-2-carbonitrile]	< 0.5 µM
CN1CCCN(Cc2ccc(-c3ccc(C(=O)N4CCOCC4)cc3)c(C#N)c2)CC1 [Example 36, 4-((4-methyl-1,4-diazepan-1-yl)methyl)-4′-(morpholine-4-carbonyl)-[1,1′-biphenyl]-2-carbonitrile]	< 2 µM
CN1CCCN(Cc2ccc(-c3ccc(CNP(C)(C)=O)cc3)c(C#N)c2)CC1 [Example 46, N-((2′-cyano-4′-((4-methyl-1,4-diazepan-1-yl)methyl)-[1,1′-biphenyl]-4-yl)methyl)-P,P-dimethylphosphinic amide]	< 0.5 µM

same assay, conditions: Examples not designated with an asterisk; footnote prints version 1 of the Kinase Assay; read-out: IC50

Compound	IC50
COCCN1CCN(Cc2ccc(-c3ccc(CN4CCCN(C)CC4)cc3C#N)cc2)CC1 [Example 3, 4′-((4-(2-methoxyethyl)piperazin-1-yl)methyl)-4-((4-methyl-1,4-diazepan-1-yl)methyl)-[1,1′-biphenyl]-2-carbonitrile]	< 0.5 µM
CN1CCCN(Cc2ccc(-c3ccc(CNCCNC(=O)OC(C)(C)C)cc3)c(C#N)c2)CC1 [Example 10, tert-butyl(2-(((2′-cyano-4′-((4-methyl-1,4-diazepan-1-yl)methyl)-[1,1′-biphenyl]-4-yl)methyl)amino)ethyl)carbamate]	< 0.5 µM
CN(C)Cc1ccc(-c2ccc(CN3CCCN(C)CC3)cc2C#N)cc1 [Example 12, 4′-((dimethylamino)methyl)-4-((4-methyl-1,4-diazepan-1-yl)methyl)-[1,1′-biphenyl]-2-carbonitrile]	< 0.5 µM
CN1CCCN(Cc2ccc(-c3ccc(CN4CCCCC4)cc3)c(C#N)c2)CC1 [Example 13, 4-((4-methyl-1,4-diazepan-1-yl)methyl)-4′-(piperidin-1-ylmethyl)-[1,1′-biphenyl]-2-carbonitrile]	< 2 µM
CN1CCCN(Cc2ccc(-c3ccc(C(=O)N(C)CCO)cc3)c(C#N)c2)CC1 [Example 17, 2′-cyano-N-(2-hydroxyethyl)-N-methyl-4′-((4-methyl-1,4-diazepan-1-yl)methyl)-[1,1′-biphenyl]-4-carboxamide]	< 0.5 µM
CN1CCCN(Cc2ccc(-c3ccc(C(=O)N4CCN(CCO)CC4)cc3)c(C#N)c2)CC1 [Example 18, 4′-(4-(2-hydroxyethyl)piperazine-1-carbonyl)-4-((4-methyl-1,4-diazepan-1-yl)methyl)-[1,1′-biphenyl]-2-carbonitrile]	< 0.5 µM
CN1CCCN(Cc2ccc(-c3ccc(C(=O)N4CCC(O)CC4)cc3)c(C#N)c2)CC1 [Example 19, 4′-(4-hydroxypiperidine-1-carbonyl)-4-((4-methyl-1,4-diazepan-1-yl)methyl)-[1,1′-biphenyl]-2-carbonitrile]	< 0.5 µM
CN1CCCN(Cc2ccc(-c3ccc(C(=O)N(C)C)cc3)c(C#N)c2)CC1 [Example 20, 2′-cyano-N,N-dimethyl-4′-((4-methyl-1,4-diazepan-1-yl)methyl)-[1,1′-biphenyl]-4-carboxamide]	< 50 µM
COCCN1CCN(C(=O)c2ccc(-c3ccc(CN4CCCN(C)CC4)cc3C#N)cc2)CC1 [Example 21, 4′-(4-(2-methoxyethyl)piperazine-1-carbonyl)-4-((4-methyl-1,4-diazepan-1-yl)methyl)-[1,1′-biphenyl]-2-carbonitrile]	< 0.5 µM
CN1CCCN(Cc2ccc(-c3ccc(C(=O)N4CCCC(O)C4)cc3)c(C#N)c2)CC1 (centres unmarked) [Example 23, 4′-(3-hydroxypiperidine-1-carbonyl)-4-((4-methyl-1,4-diazepan-1-yl)methyl)-[1,1′-biphenyl]-2-carbonitrile]	< 0.5 µM
CN1CCCN(Cc2ccc(-c3ccc(C(=O)N4CCN(C)CC4)cc3)c(C#N)c2)CC1 [Example 24, 4-((4-methyl-1,4-diazepan-1-yl)methyl)-4′-(4-methylpiperazine-1-carbonyl)-[1,1′-biphenyl]-2-carbonitrile]	< 0.5 µM
CN1CCCN(Cc2ccc(-c3ccc(C(=O)N4CCC(O)C4)cc3)c(C#N)c2)CC1 (centres unmarked) [Example 25, 4′-(3-hydroxypyrrolidine-1-carbonyl)-4-((4-methyl-1,4-diazepan-1-yl)methyl)-[1,1′-biphenyl]-2-carbonitrile]	< 0.5 µM
CN1CCCN(Cc2ccc(-c3ccc(C(N)=O)cc3)c(C#N)c2)CC1 [Example 28, 2′-cyano-4′-((4-methyl-1,4-diazepan-1-yl)methyl)-[1,1′-biphenyl]-4-carboxamide]	< 0.5 µM
CON(C)C(=O)c1ccc(-c2ccc(CN3CCCN(C)CC3)cc2C#N)cc1 [Example 35, 2′-cyano-N-methoxy-N-methyl-4′-((4-methyl-1,4-diazepan-1-yl)methyl)-[1,1′-biphenyl]-4-carboxamide]	< 0.5 µM
CC(=O)N1CCN(C(=O)c2ccc(-c3ccc(CN4CCCN(C)CC4)cc3)cc2)CC1 [Example 38, 1-(4-(4′-((4-methyl-1,4-diazepan-1-yl)methyl)-[1,1′-biphenyl]-4-carbonyl)piperazin-1-yl)ethanone]	< 50 µM
CN1CCCN(Cc2ccc(-c3ccc(C(=O)N4CCC(N5CCOCC5)CC4)cc3)cc2)CC1 [Example 39, (4′-((4-methyl-1,4-diazepan-1-yl)methyl)-[1,1′-biphenyl]-4-yl)(4-morpholinopiperidin-1-yl)methanone]	< 50 µM
CNC(=O)NCc1ccc(-c2ccc(CN3CCCN(C)CC3)cc2C#N)cc1 [Example 47, 1-((2′-cyano-4′-((4-methyl-1,4-diazepan-1-yl)methyl)-[1,1′-biphenyl]-4-yl)methyl)-3-methylurea]	< 0.5 µM
Cc1cc(CN2CCCN(C)CC2)ccc1-c1ccc(CN2CCCN(C)CC2)cc1 [Example 49, 4,4′-((2-methyl-[1,1′-biphenyl]-4,4′-diyl)bis(methylene))bis(1-methyl-1,4-diazepane)]	< 0.5 µM
CN1CCCN(Cc2ccc(-c3ccc(CN4CCCN(C)CC4)cc3CN)cc2)CC1 [Example 52, (4,4′-bis((4-methyl-1,4-diazepan-1-yl)methyl)-[1,1′-biphenyl]-2-yl)methanamine]	< 0.5 µM
CN1CCCN(Cc2ccc(-c3ccc(CN4CCCN(C)CC4)cc3CNC=O)cc2)CC1 [Example 53, N-((4,4′-bis((4-methyl-1,4-diazepan-1-yl)methyl)-[1,1′-biphenyl]-2-yl)methyl)formamide]	< 0.5 µM
Cc1cc(-c2ccc(CN3CCCN(C)CC3)cc2)ccc1CN1CCCN(C)CC1 [Example 54, 4,4′-((3-methyl-[1,1′-biphenyl]-4,4′-diyl)bis(methylene))bis(1-methyl-1,4-diazepane)]	< 0.5 µM
CN1CCCN(Cc2ccc(-c3ccc(C(=O)N4CCCN(C)CC4)cc3)c(F)c2)CC1 [Example 58, (2′-fluoro-4′-((4-methyl-1,4-diazepan-1-yl)methyl)-[1,1′-biphenyl]-4-yl)(4-methyl-1,4-diazepan-1-yl)methanone]	< 0.5 µM
CN1CCCN(Cc2ccc(-c3ccc(C(=O)N4CCCN(C)CC4)cc3F)cc2)CC1 [Example 59, (2-fluoro-4′-((4-methyl-1,4-diazepan-1-yl)methyl)-[1,1′-biphenyl]-4-yl)(4-methyl-1,4-diazepan-1-yl)methanone]	< 2 µM
Cc1cc(C(=O)N2CCCN(C)CC2)ccc1-c1ccc(CN2CCCN(C)CC2)cc1C#N [Example 60, 2′-methyl-4-((4-methyl-1,4-diazepan-1-yl)methyl)-4′-(4-methyl-1,4-diazepane-1-carbonyl)-[1,1′-biphenyl]-2-carbonitrile]	< 2 µM
CN1CCCN(Cc2ccc(-c3ccc(C(=O)N4CCCN(C)CC4)cc3Br)c(C#N)c2)CC1 [Example 61, 2′-bromo-4-((4-methyl-1,4-diazepan-1-yl)methyl)-4′-(4-methyl-1,4-diazepane-1-carbonyl)[1,1′-biphenyl]-2-carbonitrile]	< 0.5 µM
CN1CCCN(Cc2ccc(-c3ccc(C(=O)N4CCCN(C)CC4)cc3N(C)C)c(C#N)c2)CC1 [Example 62, 2′-(dimethylamino)-4-((4-methyl-1,4-diazepan-1-yl)methyl)-4′-(4-methyl-1,4-diazepane-1-carbonyl)-[1,1′-biphenyl]-2-carbonitrile]	< 0.5 µM
CN1CCCN(Cc2ccc(-c3ccc(C(=O)N4CCCN(C)CC4)cc3-c3ccccc3)c(C#N)c2)CC1 [Example 65, 4-((4-methyl-1,4-diazepan-1-yl)methyl)-4′-(4-methyl-1,4-diazepane-1-carbonyl)-[1,1′:2′,1″-terphenyl]-2-carbonitrile]	< 0.5 µM
CN1CCCN(Cc2ccc(-c3ccc(C(=O)N4CCCN(C)CC4)cc3-c3ccc(CC#N)cc3)c(C#N)c2)CC1 [Example 67, 4″-(cyanomethyl)-4-((4-methyl-1,4-diazepan-1-yl)methyl)-4′-(4-methyl-1,4-diazepane-1-carbonyl)-[1,1′:2′,1″-terphenyl]-2-carbonitrile]	< 0.5 µM
CN1CCCN(Cc2ccc(-c3ccc(C(=O)N4CCCN(C)CC4)cc3-c3ccc(C#N)cc3)c(C#N)c2)CC1 [Example 68, 4-((4-methyl-1,4-diazepan-1-yl)methyl)-4′-(4-methyl-1,4-diazepane-1-carbonyl)-[1:1′:2′,1″-terphenyl]-2,4″-dicarbonitrile]	< 0.5 µM
Cc1ccc(-c2cc(C(=O)N3CCCN(C)CC3)ccc2-c2ccc(CN3CCCN(C)CC3)cc2C#N)cc1 [Example 70, 4″-methyl-4-((4-methyl-1,4-diazepan-1-yl)methyl)-4′-(4-methyl-1,4-diazepane-1-carbonyl)-[1,1′1:2′,1″-terphenyl]-2-carbonitrile]	< 0.5 µM
